Data published in US20210259949A1, “USE OF A BIXA ORELLANA EXTRACT” (BASF Beauty Care Solutions France SAS, priority 2018, published 2021).

System: IGFBP3 protein
Test: Quantification of IGFBP3 protein by ELISA in supernatant of normal human keratinocytes
Type: cell-based
Settings: IGF-1 at 100 ng/ml, 24 h, related to non-treated cells (100), NS
Description: Normal human keratinocytes were cultured up to 70% confluence, then treated for 24 h with IGF-1 at 100 ng/ml or the Bixa orellana extract obtained according to Example 1a) before mixing with maltodextrin and spray-drying at 0.1% or 0.05% (w/w in the total medium) for 24 h. The cells are lysed for assaying the DNA, and the supernatant is used for the quantification of the IGFBP3 protein by ELISA according to the protocol of the supplier of the ELISA kit (LSBio Human IGFBP3 ELISA Kit ref LS-F24538 lot 103180).
The results are related to non-treated cells. A statistical t-test test is carried out, and the means are compared.

In the case of “IGF-1: growth factor insulin-like growth factor type 1 (IGF1), used at 100 ng/ml”, the “IGFBP3 protein, Mean” value is reported as 128.195.
